Results: paper PMC5884906, “Single Administration of HBK-15—a Triple 5-HT1A, 5-HT7, and 5-HT3 Receptor Antagonist—Reverses Depressive-Like Behaviors in Mouse Model of Depression Induced by Corticosterone” (Molecular Neurobiology, 2017)
Like-named read-outs stand apart in the source and are kept apart here.

Key:
[1] = system: BDNF level in the hippocampus; assay: BDNF level in the hippocampus (ELISA), single administration; format: in vivo, mice
Description: Mice were injected with corticosterone (s.c., 20 mg/kg) at random times during the light phase for consecutive 21 days (Fig. 1c). The dose and route of administration of corticosterone were based on studies performed by Zhao and colleagues. After the end of the procedure, next day 30 min before the test, corticosterone-treated mice were given (i.p.) saline, HBK-15 (1.25 mg/kg), fluoxetine (10 mg/kg), or ketamine (1 mg/kg) (Fig. 1c). Control mice received (i.p.) saline. The experimental groups consisted of eight randomly selected animals. We chose the dose of HBK-15 that was active in the chronic experiments (i.e., 1.25 mg/kg). The dose of ketamine was based on the studies performed by Pazini and colleagues. Animals were tested in the forced swim test and spontaneous locomotor activity test. After behavioral testing, mice were scarified and their hippocampi collected for biochemical analysis.
After the behavioral assessments, mice were sacrificed, and their brains were rapidly removed and chilled in an ice-cold saline solution. The hippocampi were dissected on a cold plate, frozen, and stored at −80 °C until assay. On the day of experiments, tissues were thawed on ice and homogenized (1:9 w/v) in phosphate-buffered saline (4 °C) and protease inhibitor cocktail was added. The 10% homogenates were prepared and homogenized for 30 s with TissueRuptor homogenizer. The homogenized tissues were centrifuged (2500×g at 4 °C for 20 min), and the supernatants were collected for further assays.
Protein concentrations of BDNF and NGF in homogenates from hippocampi were determined using the enzyme-linked immunosorbent assay (ELISA) kits (BDNF: DZE201020014, SunRed Biotechnology Company; NGF: MBS825100, MyBioSource) according to the manufacturer’s instructions. […] The samples were analyzed in duplicates, and the mean concentrations were calculated. […] The intensity of the color was read at 450 nm. Absorbance was measured in a multifunction plate reader (POLARstar Omega, BMG Labtech, Germany). […]

[2] = pharmacokinetic study in plasma after i.v. and i.p. administration; format: in vivo, mice; settings: HBK-14 2.5 mg/kg, HBK-15 1.25 mg/kg; for AUC(0-inf) / C0: mouse plasma; for C0: read-out: C 0 (initial concentration); for Cmax / MRT / half-life / Tmax / bioavailability / clearance / Vd: CD-1, mouse, plasma; for Cmax: read-out: C max (maximum plasma concentration); for MRT: read-out: MRT (mean residence time) (converted); for half-life: read-out: t 0.5 (terminal half-life); for Tmax: read-out: t max (time to reach the maximum plasma concentration) (converted); for bioavailability: after i.p. administration, AUCi.p./AUCi.v., read-out: F (absolute bioavailability); for clearance: read-out: Cl (systemic clearance); for Vd: read-out: V d (volume of distribution at steady state)
Description: For pharmacokinetic study, HBK-14 and HBK-15 dissolved in saline were administered by an intravenous (i.v.) and intraperitoneal (i.p.) administration at a dose of 2.5 and 1.25 mg/kg, respectively. Blood samples were collected at 0 min (predose), 5 min, 15 min, 30 min, 60 min, 120 min, and 240 min after compounds administration. The blood and brain samples were collected under general anesthesia induced by i.p. injections of 50 mg/kg ketamine plus 8 mg/kg xylazine. Blood samples were collected into heparinized tubes. The samples were immediately centrifuged at 3500 rpm for 10 min, and plasma was collected. The brain and plasma samples were immediately frozen at −80 °C for further analysis.
Pharmacokinetic parameters were calculated by a non-compartmental approach from the average concentration values, using Phoenix WinNonlin software (Certara, Princeton, NJ 08540, USA). First-order elimination rate constant (λ z) was calculated by linear regression of time vs log concentration. Next, the area under the mean serum and brain concentration vs time curve extrapolated to infinity (AUC0→∞) was estimated using the log-linear trapezoidal rule (Eq. 1), where C n is the concentration of last sampling of each compound.1 AUC0→∞=∑i=1nCi+Ci+1/2⋅ti+1−ti+Cn/λz
Area under the first moment curve (AUMC0→∞) was estimated by calculation of the total area under the first moment curve and extrapolated area using the Eq. 2, where t n is the time of last sampling.2 AUMC0→∞=∑i=1nti⋅Ci+ti+1⋅Ci+1/2⋅ti+1−ti+tn⋅Cn/λz+Cn/λz2
Mean residence time (MRT) was calculated as3 MRT=AUMC0→∞/AUC0→∞
Total clearance (ClT) was calculated as4 ClT=Div/AUC0→∞
Volume of distribution at steady state (Vss) was calculated as5 Vss=Div⋅AUMC0→∞/AUC0→∞^2
The quantification of studied compounds in plasma and brain samples was accomplished using UFLC Nexera system (Shimadzu, Kyoto, Japan) coupled to the triple quadrupole mass spectrometer QTrap 5500 (Sciex, Framingham, MA, USA) equipped with Turbo V™ ion source. After preparation, the samples were injected (5 μL) onto Acquity UPLC BEH C18 (3.0 × 100 mm, 1.7 μm, Waters, Milford, MA, USA) analytical column. The mobile phases that consisted of ACN with 0.1% FA (A) and water with 0.1% FA (B) were delivered in isocratic elution mode (40% A, 60% B) at the flow rate of 550 μL/min. The total time of analysis was 8 min including 2 min of column equilibration.
Electrospray ionization process was performed in positive polarization, and the data acquisition was carried out in multiple reaction monitoring mode (MRM) for all analytes and their internal standard (HBK-11 [37]). The ion spray source settings were as follows: spray voltage 4.5 kV, heater temperature 450 °C, curtain gas 25 psi, source gas 1 40 psi, source gas 2 40 psi.
An amount of 50 μL of sample (plasma or brain homogenate) was transferred into the clean Eppendorf tube and spiked with 5 μL of internal standard solution (IS, 1 μg/mL) obtaining the final concentration of 100 ng/mL. After 5 min of mixing (1500 rpm), proteins were precipitated using 150 μL ACN. After 10 min of samples shaking (1500 rpm), the incubation step was performed (10 min, 4 °C). Next, samples were centrifuged (10,000 rpm, 10 min, 4 °C) and the supernatant was transferred into chromatographic vial for LC/MS/MS analysis.

Row | SMILES | decrease in BDNF level in the hippocampus vs control ([1]; acute experiment, corticosterone 20 mg/kg s.c. 21 days + saline) [%] | effect on corticosterone-induced decrease in BDNF level in the hippocampus ([1]; single 1.25 mg/kg i.p.) | AUC(0-inf) ([2]; CD-1, ip, i.p.) [µg·h/mL] | AUC(0-inf) ([2]; CD-1, iv, i.v.) [µg·h/mL] | C0 ([2]; CD-1, iv, i.v.) [µg/mL] | Cmax ([2]; ip) [µg/mL] | MRT ([2]; ip) [h] | half-life ([2]; ip) [h] | Tmax ([2]; ip) [min] | bioavailability ([2]; ip) [%] | clearance ([2]; iv) [L/h/kg] | MRT ([2]; iv) [h] | Vd ([2]; iv) [L/kg] | half-life ([2]; iv) [h] | t 0.5 (terminal half-life) ([2]; i.p.) [h] | t 0.5 (terminal half-life) ([2]; i.v.) [h]
1 | C[C@]12C[C@H](O)[C@H]3[C@@H](CCC4=CC(=O)CC[C@@]43C)[C@@H]1CC[C@@H]2C(=O)CO [corticosterone] | 47.0 | – | – | – | – | – | – | – | – | – | – | – | – | – | – | –
2 | COc1ccccc1N1CCN(CCOCCOc2c(C)cccc2Cl)CC1.Cl [HBK-15, 1-[(2-chloro-6-methylphenoxy)ethoxyethyl]-4-(2-methoxyphenyl)piperazine hydrochloride] | – | reversed the decrease in BDNF level | 0.261 | 0.484 | 0.602 | 0.359 | 1.81 | 1.4 | 5 | 54 | 2.41 | 1.5 | 3.5 | 1.18 | 1.39 | 1.18
3 | COc1ccccc1N1CCN(CCOCCOc2c(C)cccc2C)CC1.Cl [HBK-14, 1-[(2,6-Dimethylphenoxy)ethoxyethyl]-4-(2-methoxyphenyl)piperazine hydrochloride] | – | – | 0.56 | 1.72 | 0.41 | 0.269 | 0.805 | 0.633 | 5 | 15 | 1.45 | 7.57 | 11.2 | 5.38 | 0.637 | 5.378
